Legend:
Experiment in all cases: relative viability (nuclei count vs DMSO), 5 days (fraction); higher = more cells survive
PC-3 [JPC-3] = test system: PC-3 [JPC-3]
How it was run: (§1)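 A single step with final 0.05% Triton X-100, 1% formaldehyde and 1 ug/ml Hoechst fixed the cells and stained nuclei 5 days after treatment. Lung cancer cell lines in 1536-well plates had been treated by pin tool the day after seeding with one drug alone or a fixed anchor-drug dose plus five library-drug doses (not always all listed) in √10 steps, and nuclei were counted on 4× images. Relative viability is the ratio of nuclei in treated wells to nuclei in vehicle wells, taken as the median of duplicate plates.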

NCI-H520 = test system: NCI-H520
How it was run: as §1

NCI-H1755 = test system: NCI-H1755
How it was run: as §1

LK-2 = test system: LK-2
How it was run: as §1

NCI-H1355 = test system: NCI-H1355
How it was run: as §1

NCI-H2228 = test system: NCI-H2228
How it was run: as §1

NCI-H322M = test system: NCI-H322M
How it was run: as §1

NCI-H1975 = test system: NCI-H1975
How it was run: as §1

NCI-H661 = test system: NCI-H661
How it was run: as §1

LCLC-97TM1 = test system: LCLC-97TM1
How it was run: as §1

HCC-15 = test system: HCC-15
How it was run: as §1

EKVX = test system: EKVX
How it was run: as §1

NCI-H2405 = test system: NCI-H2405
How it was run: as §1

RERF-LC-KJ = test system: RERF-LC-KJ
How it was run: as §1

HCC-827 = test system: HCC-827
How it was run: as §1

NCI-H1734 = test system: NCI-H1734
How it was run: as §1

PC-14 = test system: PC-14
How it was run: as §1

NCI-H1563 = test system: NCI-H1563
How it was run: as §1

H3255 = test system: H3255
How it was run: as §1

CAL-12T = test system: CAL-12T
How it was run: as §1

NCI-H2342 = test system: NCI-H2342
How it was run: as §1

NCI-H1650 = test system: NCI-H1650
How it was run: as §1

SMILES: COc1cc2nccc(Oc3ccc(NC(=O)Nc4cc(C)on4)c(Cl)c3)c2cc1OC [Tivozanib] + COc1cccc2cc(-c3nc([C@H]4CC[C@H](C(=O)O)CC4)n4ncnc(N)c34)[nH]c12 [OSI-027] (partner 0.5 µM)
- relative viability (PC-3 [JPC-3]; first compound 0.005 µM): 0.665
- relative viability (PC-3 [JPC-3]; first compound 0.01581 µM): 0.722
- relative viability (PC-3 [JPC-3]; first compound 0.05 µM): 0.774
- relative viability (PC-3 [JPC-3]; first compound 0.1581 µM): 0.591
- relative viability (PC-3 [JPC-3]; first compound 0.5 µM): 0.733
- relative viability (NCI-H520; first compound 0.005 µM): 0.244
- relative viability (NCI-H520; first compound 0.01581 µM): 0.249
- relative viability (NCI-H520; first compound 0.05 µM): 0.267
- relative viability (NCI-H520; first compound 0.1581 µM): 0.167
- relative viability (NCI-H520; first compound 0.5 µM): 0.313
- relative viability (NCI-H1755; first compound 0.005 µM): 0.685
- relative viability (NCI-H1755; first compound 0.01581 µM): 0.77
- relative viability (NCI-H1755; first compound 0.05 µM): 0.733
- relative viability (NCI-H1755; first compound 0.1581 µM): 0.646
- relative viability (NCI-H1755; first compound 0.5 µM): 0.612
- relative viability (LK-2; first compound 0.005 µM): 0.223
- relative viability (LK-2; first compound 0.01581 µM): 0.196
- relative viability (LK-2; first compound 0.05 µM): 0.244
- relative viability (LK-2; first compound 0.1581 µM): 0.172
- relative viability (LK-2; first compound 0.5 µM): 0.194
- relative viability (NCI-H1355; first compound 0.005 µM): 0.419
- relative viability (NCI-H1355; first compound 0.01581 µM): 0.48
- relative viability (NCI-H1355; first compound 0.05 µM): 0.475
- relative viability (NCI-H1355; first compound 0.1581 µM): 0.273
- relative viability (NCI-H1355; first compound 0.5 µM): 0.343
- relative viability (NCI-H2228; first compound 0.005 µM): 0.492
- relative viability (NCI-H2228; first compound 0.01581 µM): 0.54
- relative viability (NCI-H2228; first compound 0.05 µM): 0.615
- relative viability (NCI-H2228; first compound 0.1581 µM): 0.488
- relative viability (NCI-H2228; first compound 0.5 µM): 0.485
- relative viability (NCI-H322M; first compound 0.005 µM): 0.513
- relative viability (NCI-H322M; first compound 0.01581 µM): 0.603
- relative viability (NCI-H322M; first compound 0.05 µM): 0.545
- relative viability (NCI-H322M; first compound 0.1581 µM): 0.455
- relative viability (NCI-H322M; first compound 0.5 µM): 0.461
- relative viability (NCI-H1975; first compound 0.005 µM): 0.673
- relative viability (NCI-H1975; first compound 0.01581 µM): 0.634
- relative viability (NCI-H1975; first compound 0.05 µM): 0.709
- relative viability (NCI-H1975; first compound 0.1581 µM): 0.565
- relative viability (NCI-H1975; first compound 0.5 µM): 0.475
- relative viability (NCI-H661; first compound 0.005 µM): 0.672
- relative viability (NCI-H661; first compound 0.01581 µM): 0.73
- relative viability (NCI-H661; first compound 0.05 µM): 0.724
- relative viability (NCI-H661; first compound 0.1581 µM): 0.646
- relative viability (NCI-H661; first compound 0.5 µM): 0.688
- relative viability (LCLC-97TM1; first compound 0.005 µM): 0.52
- relative viability (LCLC-97TM1; first compound 0.01581 µM): 0.573
- relative viability (LCLC-97TM1; first compound 0.05 µM): 0.636
- relative viability (LCLC-97TM1; first compound 0.1581 µM): 0.476
- relative viability (LCLC-97TM1; first compound 0.5 µM): 0.455
- relative viability (HCC-15; first compound 0.005 µM): 0.547
- relative viability (HCC-15; first compound 0.01581 µM): 0.672
- relative viability (HCC-15; first compound 0.05 µM): 0.711
- relative viability (HCC-15; first compound 0.1581 µM): 0.571
- relative viability (HCC-15; first compound 0.5 µM): 0.61
- relative viability (EKVX; first compound 0.005 µM): 0.665
- relative viability (EKVX; first compound 0.01581 µM): 0.735
- relative viability (EKVX; first compound 0.05 µM): 0.67
- relative viability (EKVX; first compound 0.1581 µM): 0.585
- relative viability (EKVX; first compound 0.5 µM): 0.731
- relative viability (NCI-H2405; first compound 0.005 µM): 0.631
- relative viability (NCI-H2405; first compound 0.01581 µM): 0.716
- relative viability (NCI-H2405; first compound 0.05 µM): 0.684
- relative viability (NCI-H2405; first compound 0.1581 µM): 0.526
- relative viability (NCI-H2405; first compound 0.5 µM): 0.577
- relative viability (RERF-LC-KJ; first compound 0.005 µM): 0.458
- relative viability (RERF-LC-KJ; first compound 0.01581 µM): 0.62
- relative viability (RERF-LC-KJ; first compound 0.05 µM): 0.657
- relative viability (RERF-LC-KJ; first compound 0.1581 µM): 0.415
- relative viability (RERF-LC-KJ; first compound 0.5 µM): 0.59
- relative viability (HCC-827; first compound 0.005 µM): 0.74
- relative viability (HCC-827; first compound 0.01581 µM): 0.693
- relative viability (HCC-827; first compound 0.05 µM): 0.766
- relative viability (HCC-827; first compound 0.1581 µM): 0.621
- relative viability (HCC-827; first compound 0.5 µM): 0.763
- relative viability (NCI-H1734; first compound 0.005 µM): 0.567
- relative viability (NCI-H1734; first compound 0.01581 µM): 0.621
- relative viability (NCI-H1734; first compound 0.05 µM): 0.592
- relative viability (NCI-H1734; first compound 0.1581 µM): 0.429
- relative viability (NCI-H1734; first compound 0.5 µM): 0.558
- relative viability (PC-14; first compound 0.005 µM): 0.695
- relative viability (PC-14; first compound 0.01581 µM): 0.928
- relative viability (PC-14; first compound 0.05 µM): 0.83
- relative viability (PC-14; first compound 0.1581 µM): 0.664
- relative viability (PC-14; first compound 0.5 µM): 0.664
- relative viability (NCI-H1563; first compound 0.005 µM): 0.751
- relative viability (NCI-H1563; first compound 0.01581 µM): 0.773
- relative viability (NCI-H1563; first compound 0.05 µM): 0.784
- relative viability (NCI-H1563; first compound 0.1581 µM): 0.718
- relative viability (NCI-H1563; first compound 0.5 µM): 0.817
- relative viability (H3255; first compound 0.005 µM): 0.571
- relative viability (H3255; first compound 0.01581 µM): 0.597
- relative viability (H3255; first compound 0.05 µM): 0.634
- relative viability (H3255; first compound 0.1581 µM): 0.47
- relative viability (H3255; first compound 0.5 µM): 0.556
- relative viability (CAL-12T; first compound 0.005 µM): 0.583
- relative viability (CAL-12T; first compound 0.01581 µM): 0.737
- relative viability (CAL-12T; first compound 0.05 µM): 0.762
- relative viability (CAL-12T; first compound 0.1581 µM): 0.364
- relative viability (CAL-12T; first compound 0.5 µM): 0.418
- relative viability (NCI-H2342; first compound 0.005 µM): 0.67
- relative viability (NCI-H2342; first compound 0.01581 µM): 0.556
- relative viability (NCI-H2342; first compound 0.05 µM): 0.644
- relative viability (NCI-H2342; first compound 0.5 µM): 0.562
- relative viability (NCI-H1650; first compound 0.005 µM): 0.524
- relative viability (NCI-H1650; first compound 0.01581 µM): 0.746
- relative viability (NCI-H1650; first compound 0.05 µM): 0.709
- relative viability (NCI-H1650; first compound 0.1581 µM): 0.591
- relative viability (NCI-H1650; first compound 0.5 µM): 0.558
